pEC50: −log10 of the molar value.

In the test the test system is HBV. The test is described as follows: HBV inhibition assay: anti-HBV activity in vitro in HepG2.2.15 cells (extracellular HBV DNA by qPCR). The class given is cell-based. The following applies: Hepatitis B virus, 120 h, five days after compound treatment, extracellular HBV DNA in culture supernatant by qPCR, concentration at which HBV replication is inhibited by 50%. The procedure, abridged: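 HepG2.2.15 cells (stably carrying HBV genome) treated with half-log serially diluted compounds at 0.5% DMSO final for five days. Extracellular HBV DNA in supernatant quantified by qPCR after Proteinase K digestion; EC50 is concentration giving 50% inhibition of replication.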
For the compound `C[C@H]1Cn2ncc(N3CC(C(=O)N4CCOCC4)CC3=O)c2CN1C(=O)Nc1cc(F)c(F)c(F)c1` (stereo partly drawn) [Example 386, (6S)-6-methyl-3-[4-(morpholine-4-carbonyl)-2-oxo-pyrrolidin-1-yl]-N-(3,4,5-trifluorophenyl)-6,7-dihydro-4H-pyrazolo[1,5-a]pyrazine-5-carboxamide], the pEC50 – broadly, −log10 of the EC50, conventionally taken in molar units – is 7.06. For the compound `C[C@H]1Cn2ncc(N3CC(C(=O)N(C)C)CC3=O)c2CN1C(=O)Nc1cc(F)c(F)c(F)c1` (stereo partly drawn) [Example 390, (6S)-3-[4-(dimethylcarbamoyl)-2-oxo-pyrrolidin-1-yl]-6-methyl-N-(3,4,5-trifluorophenyl)-6,7-dihydro-4H-pyrazolo[1,5-a]pyrazine-5-carboxamide], the negative logarithm of the EC50 (pEC50) is 6.99. This pEC50 and that of the compound before are within 0.2 log units of each other. In turn, `C[C@H]1Cn2ncc(N3CC(C(=O)N4CCCC4)CC3=O)c2CN1C(=O)Nc1cc(F)c(F)c(F)c1` (stereo partly drawn) [Example 391, (6S)-6-methyl-3-[2-oxo-4-(pyrrolidine-1-carbonyl)pyrrolidin-1-yl]-N-(3,4,5-trifluorophenyl)-6,7-dihydro-4H-pyrazolo[1,5-a]pyrazine-5-carboxamide] had a negative logarithm of the EC50 (pEC50) of 7.13. For `C[C@H]1Cn2ncc(N3CC(C(=O)Nc4ncco4)CC3=O)c2CN1C(=O)Nc1cc(F)c(F)c(F)c1` (stereo partly drawn) [Example 392, (6S)-6-methyl-3-[4-(oxazol-2-ylcarbamoyl)-2-oxo-pyrrolidin-1-yl]-N-(3,4,5-trifluorophenyl)-6,7-dihydro-4H-pyrazolo[1,5-a]pyrazine-5-carboxamide], the pEC50 was 7.06. The pEC50 values of the last two compounds are within 0.2 log units of each other.

`C[C@H]1Cn2ncc(N3CC(C(=O)N4CCOC(C)(C)C4)CC3=O)c2CN1C(=O)Nc1cc(F)c(F)c(F)c1` (stereo partly drawn) [Example 393, (6S)-3-[4-(2,2-dimethylmorpholine-4-carbonyl)-2-oxo-pyrrolidin-1-yl]-6-methyl-N-(3,4,5-trifluorophenyl)-6,7-dihydro-4H-pyrazolo[1,5-a]pyrazine-5-carboxamide] showed a pEC50 of 7.15.

Compound `C[C@@H]1CN(C(=O)C2CC(=O)N(c3cnn4c3CN(C(=O)Nc3cc(F)c(F)c(F)c3)[C@@H](C)C4)C2)CCO1` (stereo partly drawn) [Example 394, (6S)-6-methyl-3-[4-[(2R)-2-methylmorpholine-4-carbonyl]-2-oxo-pyrrolidin-1-yl]-N-(3,4,5-trifluorophenyl)-6,7-dihydro-4H-pyrazolo[1,5-a]pyrazine-5-carboxamide] showed a pEC50 of 7.19. The compound `C[C@H]1CN(C(=O)C2CC(=O)N(c3cnn4c3CN(C(=O)Nc3cc(F)c(F)c(F)c3)[C@@H](C)C4)C2)CCO1` (stereo partly drawn) [Example 395, (6S)-6-methyl-3-[4-[(2S)-2-methylmorpholine-4-carbonyl]-2-oxo-pyrrolidin-1-yl]-N-(3,4,5-trifluorophenyl)-6,7-dihydro-4H-pyrazolo[1,5-a]pyrazine-5-carboxamide] had a pEC50 of 7.06. The same measure for `C[C@@H]1CN(C(=O)C2CC(=O)N(c3cnn4c3CN(C(=O)Nc3cc(F)c(F)c(F)c3)[C@@H](C)C4)C2)C[C@@H](C)O1` (stereo partly drawn) [Example 396, (6S)-3-[4-[trans-2,6-dimethylmorpholine-4-carbonyl]-2-oxo-pyrrolidin-1-yl]-6-methyl-N-(3,4,5-trifluorophenyl)-6,7-dihydro-4H-pyrazolo[1,5-a]pyrazine-5-carboxamide]: 7.24. The same measure for `C[C@@H]1CN(C(=O)C2CC(=O)N(c3cnn4c3CN(C(=O)Nc3cc(F)c(F)c(F)c3)[C@@H](C)C4)C2)C[C@H](C)O1` (stereo partly drawn) [Example 397, (6S)-3-[4-[cis-2,6-dimethylmorpholine-4-carbonyl]-2-oxo-pyrrolidin-1-yl]-6-methyl-N-(3,4,5-trifluorophenyl)-6,7-dihydro-4H-pyrazolo[1,5-a]pyrazine-5-carboxamide]: 7.22; for `C[C@H]1Cn2ncc(N3CC(C(=O)N4CCC(F)(F)C4)CC3=O)c2CN1C(=O)Nc1cc(F)c(F)c(F)c1` (stereo partly drawn) [Example 398, (6S)-3-[4-(3,3-difluoropyrrolidine-1-carbonyl)-2-oxo-pyrrolidin-1-yl]-6-methyl-N-(3,4,5-trifluorophenyl)-6,7-dihydro-4H-pyrazolo[1,5-a]pyrazine-5-carboxamide]: 7.10; for `C[C@H]1Cn2ncc(N3CC(C(=O)N(C)c4ncco4)CC3=O)c2CN1C(=O)Nc1cc(F)c(F)c(F)c1` (stereo partly drawn) [Example 399, (6S)-6-methyl-3-[4-[methyl(oxazol-2-yl)carbamoyl]-2-oxo-pyrrolidin-1-yl]-N-(3,4,5-trifluorophenyl)-6,7-dihydro-4H-pyrazolo[1,5-a]pyrazine-5-carboxamide]: 7.72. Consider `C[C@H]1Cn2ncc(N3CC(C)(C(=O)N4CCC(F)(F)C4)CC3=O)c2CN1C(=O)Nc1cc(F)c(F)c(F)c1` (stereo partly drawn) [Example 400, (6S)-3-[4-(3,3-difluoropyrrolidine-1-carbonyl)-4-methyl-2-oxo-pyrrolidin-1-yl]-6-methyl-N-(3,4,5-trifluorophenyl)-6,7-dihydro-4H-pyrazolo[1,5-a]pyrazine-5-carboxamide], for which the pEC50 was 7.03. Compound `C[C@H]1Cn2ncc(N3CC(C)(C(=O)N4CCC(F)(F)CC4)CC3=O)c2CN1C(=O)Nc1cc(F)c(F)c(F)c1` (stereo partly drawn) [Example 401, (6S)-3-[4-(4,4-difluoropiperidine-1-carbonyl)-4-methyl-2-oxo-pyrrolidin-1-yl]-6-methyl-N-(3,4,5-trifluorophenyl)-6,7-dihydro-4H-pyrazolo[1,5-a]pyrazine-5-carboxamide] had a negative-log EC50 (pEC50) of 7.06. The same measure for `Cc1nnc(C2(C)CC(=O)N(c3cnn4c3CN(C(=O)Nc3cc(F)c(F)c(F)c3)[C@@H](C)C4)C2)o1` (stereo partly drawn) [Example 403, (6S)-6-methyl-3-[4-methyl-4-(5-methyl-1,3,4-oxadiazol-2-yl)-2-oxo-pyrrolidin-1-yl]-N-(3,4,5-trifluorophenyl)-6,7-dihydro-4H-pyrazolo[1,5-a]pyrazine-5-carboxamide]: 7.51. In turn, `C[C@H]1Cn2ncc(N3CC(C)(c4nnco4)CC3=O)c2CN1C(=O)Nc1cc(F)c(F)c(F)c1` (stereo partly drawn) [Example 404, (6S)-6-methyl-3-[4-methyl-4-(1,3,4-oxadiazol-2-yl)-2-oxo-pyrrolidin-1-yl]-N-(3,4,5-trifluorophenyl)-6,7-dihydro-4H-pyrazolo[1,5-a]pyrazine-5-carboxamide] showed a pEC50 of 7.38. Consider `Cc1noc(C2(C)CC(=O)N(c3cnn4c3CN(C(=O)Nc3cc(F)c(F)c(F)c3)[C@@H](C)C4)C2)n1` (stereo partly drawn) [Example 405, (6S)-6-methyl-3-[4-methyl-4-(3-methyl-1,2,4-oxadiazol-5-yl)-2-oxo-pyrrolidin-1-yl]-N-(3,4,5-trifluorophenyl)-6,7-dihydro-4H-pyrazolo[1,5-a]pyrazine-5-carboxamide], for which the pEC50 is 8.00. As for `Cc1nc(C2(C)CC(=O)N(c3cnn4c3CN(C(=O)Nc3cc(F)c(F)c(F)c3)[C@@H](C)C4)C2)no1` (stereo partly drawn) [Example 406, (6S)-6-methyl-3-[4-methyl-4-(5-methyl-1,2,4-oxadiazol-3-yl)-2-oxo-pyrrolidin-1-yl]-N-(3,4,5-trifluorophenyl)-6,7-dihydro-4H-pyrazolo[1,5-a]pyrazine-5-carboxamide], the pEC50 is 8.22. This pEC50 lies 0.22 log units higher than the previous one. In turn, `C[C@H]1Cn2ncc(N3C[C@@H](c4cnco4)OCC3=O)c2CN1C(=O)Nc1cc(F)c(F)c(F)c1` [Example 407, (6S)-6-methyl-3-[(2S)-2-oxazol-5-yl-5-oxo-morpholin-4-yl]-N-(3,4,5-trifluorophenyl)-6,7-dihydro-4H-pyrazolo[1,5-a]pyrazine-5-carboxamide] had a pEC50 of 7.62. `Cc1noc(C2CN(c3cnn4c3CN(C(=O)Nc3cc(F)c(F)c(F)c3)[C@@H](C)C4)C(=O)O2)n1` (stereo partly drawn) [Example 408, (6S)-6-methyl-3-[5-(3-methyl-1,2,4-oxadiazol-5-yl)-2-oxo-oxazolidin-3-yl]-N-(3,4,5-trifluorophenyl)-6,7-dihydro-4H-pyrazolo[1,5-a]pyrazine-5-carboxamide] had a pEC50 of 7.66.

As for `C[C@H]1Cn2ncc(N3CC(c4ccc(Cl)nc4)OC3=O)c2CN1C(=O)Nc1cc(F)c(F)c(F)c1` (stereo partly drawn) [Example 409, (6S)-3-[5-(6-chloro-3-pyridyl)-2-oxo-oxazolidin-3-yl]-6-methyl-N-(3,4,5-trifluorophenyl)-6,7-dihydro-4H-pyrazolo[1,5-a]pyrazine-5-carboxamide], the pEC50 was 7.80.

In turn, `C[C@H]1Cn2ncc(N3CC(c4ccc(F)cn4)OC3=O)c2CN1C(=O)Nc1cc(F)c(F)c(F)c1` (stereo partly drawn) [Example 410, (6S)-3-[5-(5-fluoro-2-pyridyl)-2-oxo-oxazolidin-3-yl]-6-methyl-N-(3,4,5-trifluorophenyl)-6,7-dihydro-4H-pyrazolo[1,5-a]pyrazine-5-carboxamide] had a pEC50 of 7.43. For `C[C@H]1Cn2ncc(N3CC(c4cccc(F)n4)OC3=O)c2CN1C(=O)Nc1cc(F)c(F)c(F)c1` (stereo partly drawn) [Example 411, (6S)-3-[5-(6-fluoro-2-pyridyl)-2-oxo-oxazolidin-3-yl]-6-methyl-N-(3,4,5-trifluorophenyl)-6,7-dihydro-4H-pyrazolo[1,5-a]pyrazine-5-carboxamide], the pEC50 was 7.74.

Regarding `C[C@H]1Cn2ncc(N3CC(c4cnn(C)c4)CC3=O)c2CN1C(=O)Nc1cc(F)c(F)c(F)c1` (stereo partly drawn) [Example 412, (6S)-6-methyl-3-[4-(1-methylpyrazol-4-yl)-2-oxo-pyrrolidin-1-yl]-N-(3,4,5-trifluorophenyl)-6,7-dihydro-4H-pyrazolo[1,5-a]pyrazine-5-carboxamide], the negative logarithm of the EC50 (pEC50) is 7.68.

For `C[C@H]1Cn2ncc(N3CC(c4cncnc4)CC3=O)c2CN1C(=O)Nc1cc(F)c(F)c(F)c1` (stereo partly drawn) [Example 413, (6S)-6-methyl-3-(2-oxo-4-pyrimidin-5-yl-pyrrolidin-1-yl)-N-(3,4,5-trifluorophenyl)-6,7-dihydro-4H-pyrazolo[1,5-a]pyrazine-5-carboxamide], the pEC50 was 7.12. Against the preceding compound, the pEC50 is 0.56 log units lower. In the case of `C[C@H]1Cn2ncc(N3CC(Nc4ncc(F)cn4)CC3=O)c2CN1C(=O)Nc1cc(F)c(F)c(F)c1` (stereo partly drawn) [Example 414, (6S)-3-[4-[(5-fluoropyrimidin-2-yl)amino]-2-oxo-pyrrolidin-1-yl]-6-methyl-N-(3,4,5-trifluorophenyl)-6,7-dihydro-4H-pyrazolo[1,5-a]pyrazine-5-carboxamide], the negative-log EC50 (pEC50) is 7.77.

Values taken from patent publication US11168086B2, “Methods of synthesizing pyrazine compounds” (Hoffmann-La Roche Inc., priority 2015, dated 2021).
